{"source": "patent US20050059646A1", "about": "“Use of 4-androstene-3,6,17-trione to elevate testosterone levels and the testosterone/estrogen ratio in males” (Proviant Technology Inc., priority 2003, published 2005)", "key": {"[1]": {"biological_target": "T1, aromatase enzyme (Homo sapiens, UniProt P11511)", "T1 sequence (P11511 1-503)": "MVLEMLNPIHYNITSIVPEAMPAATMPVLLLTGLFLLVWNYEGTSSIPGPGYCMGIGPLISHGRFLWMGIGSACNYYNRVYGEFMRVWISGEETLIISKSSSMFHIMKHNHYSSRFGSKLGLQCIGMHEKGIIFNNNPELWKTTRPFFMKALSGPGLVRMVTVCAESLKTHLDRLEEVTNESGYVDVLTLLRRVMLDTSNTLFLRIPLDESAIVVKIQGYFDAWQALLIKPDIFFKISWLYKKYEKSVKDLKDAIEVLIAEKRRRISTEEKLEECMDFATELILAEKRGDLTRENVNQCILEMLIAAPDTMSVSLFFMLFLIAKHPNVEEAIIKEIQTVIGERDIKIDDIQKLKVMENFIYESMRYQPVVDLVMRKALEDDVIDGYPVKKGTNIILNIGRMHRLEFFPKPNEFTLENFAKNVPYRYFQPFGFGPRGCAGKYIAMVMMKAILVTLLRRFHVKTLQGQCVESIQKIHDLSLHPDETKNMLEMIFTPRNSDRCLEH", "conditions": "in-vitro; cited from earlier work"}, "[2]": {"test_system": "male subjects", "test": "Open label study: 300 mg a-trione bid for three weeks, endocrine markers in resting AM blood draws", "format": "in vivo, human", "design": "Free Testosterone: unit not given here", "conditions": "for Total Testosterone: 300 mg bid oral, six male subjects, Week 0 baseline 443.67; for Estradiol / Sex Hormone Binding Globulin (SHBG) / Dihydrotestosterone / Free Testosterone / T/E Ratio: 300 mg bid; for Estradiol: Week 0 baseline 16.5; for Sex Hormone Binding Globulin (SHBG): Week 0 baseline 21.83; for Dihydrotestosterone: Week 0 baseline 33.33; for Free Testosterone: Week 0 baseline 126.67; for T/E Ratio: Week 0 baseline 269/1", "experimental": "Six male subjects, aged 32-40 years of age, were prescreened via a medical doctor for endocrinological abnormalities. The subjects' physical characteristics were: height 177.38+/−[…] cm, weight 88.8+/−13.65 kg, body fat percentage 14.9+/−3.5%. Subjects ingested 300 mg a-trione bid for three weeks as part of an open label design. Resting AM blood draws were taken at 0, 1, 2, and 3 weeks of supplementation. Table 1 indicates the changes in endocrine markers over the time evaluated. Results were analyzed using a Repeated Measures-ANOVA design with paired samples t-tests as appropriate. […] Therefore, a-trione can raise the T/E ratio while leaving estradiol in the safe physiological range."}, "[3]": {"conditions": "300 mg bid for three weeks, change over the time evaluated"}}, "data": [{"smiles": "C[C@]12CCC(=O)C=C1C(=O)C[C@@H]1[C@@H]2CC[C@]2(C)C(=O)CC[C@@H]12", "note": "[a-trione, 4-androstene-3,6,17-trione]", "values": [{"measurement": "aromatase inhibiting activity", "setting": "[1]", "value": "has been shown to have aromatase inhibiting activity in-vitro"}, {"measurement": "change in estrogen", "setting": "[2]; [3]", "value": "−11", "unit": "%"}, {"measurement": "increase in testosterone levels", "setting": "[2]; [3]", "value": "+88%"}, {"measurement": "Total Testosterone", "setting": "[2]; Week 1", "value": 701.17, "unit": "ng/dL"}, {"measurement": "Estradiol", "setting": "[2]; Week 1", "value": 16.5, "unit": "pg/mL"}, {"measurement": "Sex Hormone Binding Globulin (SHBG)", "setting": "[2]; Week 1", "value": 20.5, "unit": "nmol/L"}, {"measurement": "Dihydrotestosterone", "setting": "[2]; Week 1", "value": 39.83, "unit": "ng/dL"}, {"measurement": "Free Testosterone", "setting": "[2]; Week 1", "value": 216.67}, {"measurement": "T/E Ratio", "setting": "[2]; Week 1", "value": "425/1"}, {"measurement": "Total Testosterone", "setting": "[2]; Week 2", "value": 752.17, "unit": "ng/dL"}, {"measurement": "Estradiol", "setting": "[2]; Week 2", "value": 14.8, "unit": "pg/mL"}, {"measurement": "Sex Hormone Binding Globulin (SHBG)", "setting": "[2]; Week 2", "value": 19.5, "unit": "nmol/L"}, {"measurement": "Dihydrotestosterone", "setting": "[2]; Week 2", "value": 45.83, "unit": "ng/dL"}, {"measurement": "Free Testosterone", "setting": "[2]; Week 2", "value": 252.33}, {"measurement": "T/E Ratio", "setting": "[2]; Week 2", "value": "508/1"}, {"measurement": "Total Testosterone", "setting": "[2]; Week 3", "value": 835.33, "unit": "ng/dL"}, {"measurement": "Estradiol", "setting": "[2]; Week 3", "value": 14.67, "unit": "pg/mL"}, {"measurement": "Sex Hormone Binding Globulin (SHBG)", "setting": "[2]; Week 3", "value": 18.83, "unit": "nmol/L"}, {"measurement": "Dihydrotestosterone", "setting": "[2]; Week 3", "value": 47.5, "unit": "ng/dL"}, {"measurement": "Free Testosterone", "setting": "[2]; Week 3", "value": 285.67}, {"measurement": "T/E Ratio", "setting": "[2]; Week 3", "value": "569/1"}, {"measurement": "effect on estradiol (in words)", "setting": "[2]; male endocrinological profile", "value": "small, barely significant decrease in estradiol"}, {"measurement": "effect on testosterone (in words)", "setting": "[2]; male endocrinological profile", "value": "very marked increase of testosterone"}]}]}
